Tests used:
Safety and tolerability = type: in vivo, Japanese patients
[1] = system: relapsed/refractory (r/r) B‐cell malignancies; assay: Antitumor activity; type: in vivo, Japanese patients
[2] = Plasma pharmacokinetics of acalabrutinib and ACP‐5862; type: in vivo, Japanese patients
[3] = r/r CLL; cited from earlier work
r/r MCL = settings: cited from earlier work
[4] = CLL/SLL cohort (n = 9), Part 1 + Part 2
[5] = MCL cohort (n = 13), Part 1 + Part 2
[6] = multiple dose 100 mg BID, day 8, part 1
[7] = multiple dose 100 mg BID, day 8, part 1, fasting

## CC#CC(=O)N1CCC[C@H]1c1nc(-c2ccc(C(=O)Nc3ccccn3)cc2)c2c(N)nccn12 [acalabrutinib]
Safety and tolerability; r/r CLL/SLL cohort (N = 9)
  AE of clinical interest: Other leukopenia: 0 n (%)
  AE of clinical interest: Second primary malignancies (excl. nonmelanoma skin cancer): 1 (11.1) n (%)
  AE of clinical interest: Second primary malignancy: 1 (11.1) n (%)
  AE of clinical interest: Thrombocytopenia: 1 (11.1) n (%)
  AE of clinical interest: Tumor lysis syndrome: 0 n (%)
  Patients with any AE of clinical interest: 8 (88.9) n (%)
  Patients with any SAE: 2 (22.2) n (%)
  SAE: Abdominal pain upper: 0 n (%)
  SAE: Anemia: 0 n (%)
  SAE: Blood and lymphatic system disorders: 0 n (%)
  SAE: Colon cancer: 1 (11.1) n (%)
  SAE: Gastrointestinal disorders: 0 n (%)
  SAE: Infections and infestations: 1 (11.1) n (%)
  SAE: Neoplasms benign, malignant, and unspecified (incl. cysts and polyps): 1 (11.1) n (%)
  SAE: Pneumonia: 1 (11.1) n (%)
Safety and tolerability; r/r MCL cohort (N = 13)
  AE of clinical interest: Anemia: 3 (23.1) n (%)
  AE of clinical interest: Atrial fibrillation: 1 (7.7) n (%)
  AE of clinical interest: Cardiac events: 1 (7.7) n (%)
  AE of clinical interest: Hemorrhage: 4 (30.8) n (%)
  AE of clinical interest: Hepatotoxicity: 2 (15.4) n (%)
  AE of clinical interest: Infections: 7 (53.8) n (%)
  AE of clinical interest: Interstitial lung disease/pneumonitis: 1 (7.7) n (%)
  AE of clinical interest: Leukopenia: 4 (30.8) n (%)
  AE of clinical interest: Neutropenia: 3 (23.1) n (%)
  AE of clinical interest: Other hemorrhage: 4 (30.8) n (%)
  AE of clinical interest: Other leukopenia: 3 (23.1) n (%)
  AE of clinical interest: Second primary malignancies (excl. nonmelanoma skin cancer): 0 n (%)
  AE of clinical interest: Second primary malignancy: 0 n (%)
  AE of clinical interest: Thrombocytopenia: 3 (23.1) n (%)
  AE of clinical interest: Tumor lysis syndrome: 1 (7.7) n (%)
  Patients with any AE of clinical interest: 11 (84.6) n (%)
  Patients with any SAE: 3 (23.1) n (%)
  SAE: Abdominal pain upper: 1 (7.7) n (%)
  SAE: Anemia: 0 n (%)
  SAE: Blood and lymphatic system disorders: 0 n (%)
  SAE: Colon cancer: 0 n (%)
  SAE: Gastrointestinal disorders: 1 (7.7) n (%)
  SAE: Infections and infestations: 2 (15.4) n (%)
  SAE: Neoplasms benign, malignant, and unspecified (incl. cysts and polyps): 0 n (%)
  SAE: Pneumonia: 2 (15.4) n (%)
[1]; [4]
  CR: 0 Number (%) of patients with a response
  CRi: 2 (22) Number (%) of patients with a response
  Clinical PD: 0 Number (%) of patients with a response
  Nonresponse (total): 1 (11) Number (%) of patients with a response
  Not evaluable: 0 Number (%) of patients with a response
  ORR: 8 (89) Number (%) of patients with a response
  PD: 0 Number (%) of patients with a response
  PR: 6 (67) Number (%) of patients with a response
  PRL: 1 (11) Number (%) of patients with a response
  Stable disease: 0 Number (%) of patients with a response
[1]; CLL/SLL cohort including PRL (n = 9), Part 1 + Part 2
  ORR: 9 (100) Number (%) of patients with a response
[1]; [5]
  CR: 5 (38) Number (%) of patients with a response
  Nonresponse (total): 5 (38) Number (%) of patients with a response
  Not evaluable: 0 Number (%) of patients with a response
  ORR: 8 (62) Number (%) of patients with a response
  PD: 2 (15) Number (%) of patients with a response
  PR: 3 (23) Number (%) of patients with a response
  Stable disease: 3 (23) Number (%) of patients with a response
[1]; r/r CLL/SLL cohort (8/9 patients)
  Overall response rate (ORR): 89%
[1]; r/r CLL/SLL cohort (n = 9)
  Median progression‐free survival (PFS): not reached
[1]; r/r CLL/SLL cohort including PRL (9/9 patients)
  Overall response rate (ORR): 100%
[1]; r/r MCL cohort (8/13 patients)
  Overall response rate (ORR): 62%
[1]; r/r MCL cohort (n = 13)
  Median progression‐free survival (PFS): 7 months
[2]; after a single dose
  Coefficient of variation (CV) of Cmax: 174%
[2]; after multiple dosing
  Interpatient variability (CVs): < 30%
[2]; [6]
  RAC (extent of accumulation on multiple dosing), Amean ± SD: 1.69
  TC (time dependency of pharmacokinetics), Amean ± SD: 1.163 ± 0.4770
[2]; [7]
  CL/F (oral clearance), Amean ± SD: 84.89 ± 19.84 L/h
  t1/2, Amean ± SD: 1.795 ± 0.7404 h
[2]; multiple dose 100 mg BID, day 8, part 1, listed as Acalabrutinib
  RAC (extent of accumulation on multiple dosing), Amean ± SD: 1.694 ± 1.275
[2]; single dose 100 mg acalabrutinib, part 1, fasting
  CL/F (oral clearance), Amean ± SD: 99.54 ± 44.33 L/h
[2]; single‐ and multiple‐dose periods
  Absorption: rapidly absorbed
[3]
  Headache, patients: 43%
r/r MCL
  Headache, patients: 38%

— publication PMC8177795 (Cancer Science, 2021)
